Results published in patent publication US11883526B2 (priority 2019, dated 2024).
Like-named read-outs stand apart in the source and are kept apart here.

Test system: subjects with MDD at imminent risk for suicide
Conditions: 84 mg
[1] = TEAE, double-blind phase, N = 35
[2] = adverse event, follow up phase, N = 27
[3] = overall summary, double-blind phase, N = 35
[4] = serious TEAE, double-blind phase, N = 35
[5] = serious adverse event, follow up phase, N = 27

CN[C@]1(c2ccccc2Cl)CCCCC1=O [esketamine, (S)-2-(2-chlorophenyl)-2-(methylamino)cyclohexanone]
Vertigo: no. of subjects [1]: 4
Vision blurred: % of subjects [1]: (8.6%)
Vision blurred: no. of subjects [1]: 3
Vomiting: % of subjects [1]: (20.0%)
Vomiting: no. of subjects [1]: 7
Weight increased: % of subjects [1]: (5.7%)
Weight increased: no. of subjects [1]: 2
Abdominal pain: % of subjects [2]: (3.7%)
Abdominal pain: no. of subjects [2]: 1
Abdominal tenderness: % of subjects [2]: (3.7%)
Abdominal tenderness: no. of subjects [2]: 1
Aphthous ulcer: no. of subjects [2]: 0
Back pain: % of subjects [2]: (3.7%)
Back pain: no. of subjects [2]: 1
Bronchitis: no. of subjects [2]: 0
Cellulitis: no. of subjects [2]: 0
Cogwheel rigidity: % of subjects [2]: (3.7%)
Cogwheel rigidity: no. of subjects [2]: 1
Contusion: % of subjects [2]: (3.7%)
Contusion: no. of subjects [2]: 1
Depressed mood: no. of subjects [2]: 0
Depression: % of subjects [2]: (3.7%)
Depression: no. of subjects [2]: 1
Diarrhea: % of subjects [2]: (3.7%)
Diarrhea: no. of subjects [2]: 1
Dizziness: % of subjects [2]: (3.7%)
Dizziness: no. of subjects [2]: 1
Drug hypersensitivity: no. of subjects [2]: 0
Dry mouth: % of subjects [2]: (7.4%)
Dry mouth: no. of subjects [2]: 2
Dysgeusia: % of subjects [2]: (3.7%)
Dysgeusia: no. of subjects [2]: 1
Ear and labyrinth disorders: no. of subjects [2]: 0
Ear infection: % of subjects [2]: (3.7%)
Ear infection: no. of subjects [2]: 1
Epistaxis: % of subjects [2]: (3.7%)
Epistaxis: no. of subjects [2]: 1
Flank pain: % of subjects [2]: (3.7%)
Flank pain: no. of subjects [2]: 1
Folliculitis: no. of subjects [2]: 0
Gastrointestinal disorders: % of subjects [2]: (22.2%)
Gastrointestinal disorders: no. of subjects [2]: 6
Headache: % of subjects [2]: (7.4%)
Headache: no. of subjects [2]: 2
Immune system disorders: no. of subjects [2]: 0
Infections and infestations: % of subjects [2]: (11.1%)
Infections and infestations: no. of subjects [2]: 3
Influenza: no. of subjects [2]: 0
Injury, poisoning and procedural complications: % of subjects [2]: (7.4%)
Injury, poisoning and procedural complications: no. of subjects [2]: 2
Insomnia: % of subjects [2]: (11.1%)
Insomnia: no. of subjects [2]: 3
Intentional self-injury: % of subjects [2]: (3.7%)
Intentional self-injury: no. of subjects [2]: 1
Loss of consciousness: % of subjects [2]: (3.7%)
Loss of consciousness: no. of subjects [2]: 1
Meniere's disease: no. of subjects [2]: 0
Metabolism and nutrition disorders: no. of subjects [2]: 0
Migraine: % of subjects [2]: (3.7%)
Migraine: no. of subjects [2]: 1
Musculoskeletal and connective tissue disorders: % of subjects [2]: (7.4%)
Musculoskeletal and connective tissue disorders: no. of subjects [2]: 2
Musculoskeletal chest pain: % of subjects [2]: (3.7%)
Musculoskeletal chest pain: no. of subjects [2]: 1
Musculoskeletal pain: % of subjects [2]: (3.7%)
Musculoskeletal pain: no. of subjects [2]: 1
Nasal congestion: % of subjects [2]: (3.7%)
Nasal congestion: no. of subjects [2]: 1
Nasopharyngitis: % of subjects [2]: (3.7%)
Nasopharyngitis: no. of subjects [2]: 1
Nausea: no. of subjects [2]: 0
Neck pain: % of subjects [2]: (3.7%)
Neck pain: no. of subjects [2]: 1
Nervous system disorders: % of subjects [2]: (22.2%)
Nervous system disorders: no. of subjects [2]: 6
Night sweats: % of subjects [2]: (3.7%)
Night sweats: no. of subjects [2]: 1
Panic reaction: no. of subjects [2]: 0
Pelvic pain: % of subjects [2]: (3.7%)
Pelvic pain: no. of subjects [2]: 1
Pharyngitis: % of subjects [2]: (7.4%)
Pharyngitis: no. of subjects [2]: 2
Polydipsia: no. of subjects [2]: 0
Procedural pain: no. of subjects [2]: 0
Psychiatric disorders: % of subjects [2]: (18.5%)
Psychiatric disorders: no. of subjects [2]: 5
Rash: no. of subjects [2]: 0
Renal and urinary disorders: no. of subjects [2]: 0
Renal failure: no. of subjects [2]: 0
Reproductive system and breast disorders: % of subjects [2]: (3.7%)
Reproductive system and breast disorders: no. of subjects [2]: 1
Respiratory, thoracic and mediastinal disorders: % of subjects [2]: (7.4%)
Respiratory, thoracic and mediastinal disorders: no. of subjects [2]: 2
Restlessness: % of subjects [2]: (3.7%)
Restlessness: no. of subjects [2]: 1
Road traffic accident: % of subjects [2]: (3.7%)
Road traffic accident: no. of subjects [2]: 1
Sedation: % of subjects [2]: (3.7%)
Sedation: no. of subjects [2]: 1
Self-injurious ideation: no. of subjects [2]: 0
Sexual dysfunction: no. of subjects [2]: 0
Skin and subcutaneous tissue disorders: % of subjects [2]: (3.7%)
Skin and subcutaneous tissue disorders: no. of subjects [2]: 1
Somnolence: no. of subjects [2]: 0
Suicidal ideation: % of subjects [2]: (3.7%)
Suicidal ideation: no. of subjects [2]: 1
Suicide attempt: no. of subjects [2]: 0
Tooth impacted: no. of subjects [2]: 0
Toothache: no. of subjects [2]: 0
Total no. subjects with adverse events: % of subjects [2]: (48.1%)
Total no. subjects with adverse events: no. of subjects [2]: 13
Tremor: % of subjects [2]: (7.4%)
Tremor: no. of subjects [2]: 2
Upper respiratory tract infection: % of subjects [2]: (3.7%)
Upper respiratory tract infection: no. of subjects [2]: 1
Viral upper respiratory tract infection: no. of subjects [2]: 0
Vomiting: % of subjects [2]: (3.7%)
Vomiting: no. of subjects [2]: 1
Vulvovaginal mycotic infection: % of subjects [2]: (3.7%)
Vulvovaginal mycotic infection: no. of subjects [2]: 1
1 or more serious TEAE: % of subjects [3]: 11.4%
1 or more serious TEAE: no. of subjects [3]: 4
Possibly related TEAE: % of subjects [3]: 82.9%
Possibly related TEAE: no. of subjects [3]: 29
TEAE leading to death: no. of subjects [3]: 0
TEAE leading to drug withdrawn: % of subjects [3]: 14.3%
TEAE leading to drug withdrawn: no. of subjects [3]: 5
TEAE: % of subjects [3]: 94.3%
TEAE: no. of subjects [3]: 33
Agitation: % of subjects [4]: 2.9%
Agitation: no. of subjects [4]: 1
Depressive symptom: % of subjects [4]: 2.9%
Depressive symptom: no. of subjects [4]: 1
Psychiatric disorders: % of subjects [4]: 11.4%
Psychiatric disorders: no. of subjects [4]: 4
Suicidal ideation: % of subjects [4]: 5.7%
Suicidal ideation: no. of subjects [4]: 2
Total no. subjects with a serious TEAE: % of subjects [4]: 11.4%
Total no. subjects with a serious TEAE: no. of subjects [4]: 4
Cellulitis: no. of subjects [5]: 0
Infections and infestations: no. of subjects [5]: 0
Psychiatric disorders: % of subjects [5]: 3.7%
Psychiatric disorders: no. of subjects [5]: 1
Suicidal ideation: % of subjects [5]: 3.7%
Suicidal ideation: no. of subjects [5]: 1
Suicide attempt: no. of subjects [5]: 0
Total no. subjects with a serious adverse event: % of subjects [5]: 3.7%
Total no. subjects with a serious adverse event: no. of subjects [5]: 1
